In patent US10857136B2, “Compounds for use in the prevention and/or treatment of non-alcoholic fat liver disease and non-alcoholic steatohepatitis” (SJT MOLECULAR RESEARCH, SL, priority 2017, dated 2020):

Columns and labels:
[1] = tested on: DIO-NASH mice (C57Bl/6J male mice); assay: Total fat content in liver (morphometry, H&E), 8 weeks assay in DIO-NASH mice; type: in vivo; conditions: 50 mg/kg, p.o., b.i.d., vs DIO-NASH vehicle
Excerpt: The DIO-NASH mouse model is fed a high fat diet that results on non-alcoholic fat liver disease and are based on C57Bl/6J mice put on a 40% high fat diet prior to the assays. For the assessment of effect of the compounds of the invention in liver lipid content in non-alcoholic fat liver disease, 34 C57Bl/6J male mice (5-week-old at delivery), obtained from Janvier, France, were used. The DIO-NASH mice group were put on high fat diet (40% AMLN diet, D09100301 Research Diets, USA) and a control group (LEAN-CHOW) was put on a regular chow diet (Altromin 1324, Brogaarden, Denmark) for 35 weeks prior to the study.
The animals (kept in single housings) were checked minimum once daily where signs of abnormal behavior, abnormal locomotor activity, ataxia or clinical signs of disease (lack of grooming, raised fur, signs of pain upon handling, loss of excessive body-weight) were followed closely. […]
To assess the effect of compound 4a on hepatic lipid content in mice with non-alcoholic fat liver disease, DIO-NASH mice (C57Bl/6J male mice) were treated with a hydrochloride salt of compound 4a during 8 weeks (50 mg/kg, p.o., b.i.d.), versus a control of DIO-NASH mice treated with saline (0.9% NaCl) and versus LEAN-CHOW mice also treated with saline (0.9% NaCl), […]. Liver lipid content was determined by morphometry. […]

[2] = tested on: DIO-NASH mice (C57Bl/6J male mice); assay: Differential gene expression analysis by RNAseq in liver of DIO-NASH mice; type: in vivo
Experimental: The effect of the compounds of the invention in the development of liver fibrosis was also studied by differential gene expression analysis by RNAseq where DIO-NASH mice (C57Bl/6J male mice) were treated with a hydrochloride salt of compound 4a during 8 weeks (50 mg/kg, p.o., b.i.d.), versus a pathological control of DIO-NASH mice and a non-pathological control LEAN-CHOW mice, both treated with the vehicle (0.9% NaCl).
The animals were kept and examined under the same conditions were used as in example 2.2. The liver biopsies were also carried out under the same conditions as in example 2.2. The DIO-NASH mice group were put on high fat diet (40% AMLN diet, D09100301 Research Diets, USA) and a control group (LEAN-CHOW) was put on a regular chow diet (Altromin 1324, Brogaarden, Denmark) for 35 weeks prior to the study.
FIGS. 12 and 13 show the effect of treatment of DIO-NASH mice with a hydrochloride salt of compound 4a versus a control DIO-NASH mice group treated with vehicle and a LEAN-CHOW […] control group also treated with vehicle, in the expression of collagen genes which are fibrosis markers: collagen type I-alpha 1 (COL1A1) and alpha 2 (COL1A2), collagen type III alpha 1 (COL3A1), collagen V alpha 1 (COL5A1), alpha 2 (COL5A2) and alpha 3 (COL5A3), collagen type VI alpha 1 (COL6A1), alpha 2 (COL6A2) and alpha 3 (COL6A3).
Results are given as expression level in RPKM for each mice group, wherein RPKM (Reads per kilo base per million mapped reads) is a method of quantifying gene expression from RNA sequencing data by normalizing for […] and the number of sequencing reads.
Date expressed as mean±s.e.m. values from 6 animals. ***P<0.001 vs. NASH vehicle.

COc1ccc(-c2nc(C(=O)NCCN)cc3c2[nH]c2ccccc23)cc1 [Compound 4a, N(-ethylamine)-1-benzosubstituted-β-carboline-3-carboxamide]
steatosis in representative images of liver morphology (H&E) [1]: diminished the steatosis
liver lipid content (steatosis) determined by morphometry ([1]; p<0.001): reduced liver lipid content
expression of CD36 (lipid metabolism) ([2]; 50 mg p.o., b.i.d, 8 weeks): decreased expression
expression of Casp7 and IL18 (hepatocellular cell death) ([2]; 50 mg p.o., b.i.d, 8 weeks): increased expression
expression of GLUT4 (insulin signaling) ([2]; 50 mg p.o., b.i.d, 8 weeks): increased expression
expression of MAPK and AKT (insulin signaling) ([2]; 50 mg p.o., b.i.d, 8 weeks): decreased expression
expression of SQLE (lipid metabolism) ([2]; 50 mg p.o., b.i.d, 8 weeks): increased expression
fibrosis genes related to stellate cell activation, such as Col1a1, Col3a1 and TIMP1 ([2]; 50 mg p.o., b.i.d, 8 weeks): reduction
inflammation markers related to monocyte recruitment, such as CD68, CCR2, MAC-2 ([2]; 50 mg p.o., b.i.d, 8 weeks): reduction
TLR4, TGFB and TGFBR gene expression (inflammation signaling) ([2]; 50 mg/kg, p.o., b.i.d., 8 weeks): reduction
expression of collagen genes (COL1A1, COL1A2, COL3A1, COL5A1, COL5A2, COL5A3, COL6A1, COL6A2, COL6A3) ([2]; 50 mg/kg, p.o., b.i.d., 8 weeks, vs DIO-NASH vehicle, P<0.001): significantly reduced the expression of the collagen genes
number of genes regulated ([2]; 8 weeks treatment, RNAseq): more than 2000 genes
